Data from patent US20120148690A1, “SKIN BARRIER FUNCTION RECOVERY ACCELERATOR” (SHISEIDO COMPANY, LTD., priority 2010, published 2012).

What was measured:
TRPV4 = TRPV4 (Homo sapiens, UniProt Q9HBA0); conditions: common TRP inhibitor; TRPV4 activated by heat (36 to 40° C.) or agonist; cited from earlier work
TRPA1 [1] = target: T1, TRPA1 (Mus musculus, UniProt Q8BLA8); experiment: Barrier recovery after tape stripping, measured by transepidermal water loss (TEWL); type: in vivo, hairless mice; conditions: for Barrier recovery (TEWL recovery rate): local application of 100 μl of 0.5 mM agonist solution immediately after tape stripping
T1 construct: TRPA1 in mouse epidermis was determined to positively immunostained; from tissue; host or cells: skin (epidermis) of living male HR-1 hairless mice
T1 sequence (Q8BLA8 whole entry): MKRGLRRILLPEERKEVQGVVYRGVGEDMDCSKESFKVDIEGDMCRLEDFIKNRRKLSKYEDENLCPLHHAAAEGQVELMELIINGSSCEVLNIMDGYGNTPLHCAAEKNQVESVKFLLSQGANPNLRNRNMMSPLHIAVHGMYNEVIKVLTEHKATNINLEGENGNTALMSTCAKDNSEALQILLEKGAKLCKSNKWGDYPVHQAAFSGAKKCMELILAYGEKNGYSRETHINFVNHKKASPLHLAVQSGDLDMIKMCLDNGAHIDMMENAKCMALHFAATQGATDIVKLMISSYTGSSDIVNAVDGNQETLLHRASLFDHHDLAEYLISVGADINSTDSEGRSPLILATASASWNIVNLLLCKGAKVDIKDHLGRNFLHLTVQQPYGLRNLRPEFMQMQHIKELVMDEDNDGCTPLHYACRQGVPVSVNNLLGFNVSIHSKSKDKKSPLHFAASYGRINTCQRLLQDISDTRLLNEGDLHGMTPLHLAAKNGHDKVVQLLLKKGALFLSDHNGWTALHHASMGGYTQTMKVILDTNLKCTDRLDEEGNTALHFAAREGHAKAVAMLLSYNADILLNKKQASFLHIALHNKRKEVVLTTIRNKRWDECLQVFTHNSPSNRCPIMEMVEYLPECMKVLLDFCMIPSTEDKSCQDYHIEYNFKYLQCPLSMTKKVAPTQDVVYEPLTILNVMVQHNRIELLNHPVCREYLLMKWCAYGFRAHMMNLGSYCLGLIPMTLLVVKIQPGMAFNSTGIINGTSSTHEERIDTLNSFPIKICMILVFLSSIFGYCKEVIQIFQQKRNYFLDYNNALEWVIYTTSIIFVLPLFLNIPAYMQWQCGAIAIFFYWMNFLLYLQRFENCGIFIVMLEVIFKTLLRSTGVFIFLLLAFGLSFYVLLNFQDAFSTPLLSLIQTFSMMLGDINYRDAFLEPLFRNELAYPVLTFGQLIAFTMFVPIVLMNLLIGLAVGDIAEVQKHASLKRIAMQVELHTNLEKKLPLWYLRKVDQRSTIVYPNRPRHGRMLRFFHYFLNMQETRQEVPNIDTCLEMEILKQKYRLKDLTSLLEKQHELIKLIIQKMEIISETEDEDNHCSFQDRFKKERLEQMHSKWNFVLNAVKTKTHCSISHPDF
Procedure: Male hairless mice age 7 to 10 weeks (HR-1, Hoshino Laboratory Animals, Inc., Japan) were used in all experiments. Measurement of skin barrier function, barrier destruction and application of test samples were carried out while the animals were anesthetized with Nembutal.
Permeability barrier function was evaluated on the basis of measurement results for transepidermal water loss (TEWL) obtained using an electrical moisture analyzer (Meeco Inc.) in the manner previously described (Denda, et al., J. Invest. Dermatol., 111, 858-863 (1998): Non-Patent Document 10). In the barrier recovery experiment, treatment was carried out on the animals consisting of repeatedly carrying out tape stripping on skin on both sides of the abdomen until TEWL reached 7 to 10 mg/cm^2/hr. The effects of each treatment were investigated by measuring at two locations on the sides of the abdomen using four mice. Next, TEWL values at the same sites were measured at 1, 3, 6 and 24 hours after barrier destruction. In order to avoid the effects of circadian rhythm, the speed of barrier recovery was investigated immediately after destroying the skin barrier between the hours of 7:00 AM and 8:00 AM. The results for barrier recovery were expressed in terms of recovery rate (%). This is because the degree of barrier destruction varies from day to day. Recovery rate was calculated for each mouse using the following formula:
[(TEWL immediately after barrier destruction−TEWL at indicated time)/(TEWL immediately after barrier destruction−TEWL basal value)]×100%
The effects of TRPA1 agonist on undamaged skin of hairless mice were first evaluated. The skin permeability barrier was destroyed by tape stripping followed immediately thereafter by application of 100 μl of agonist solution. […] Next, the surface of the skin on one side of the abdomen was chilled (10 to 15° C.) for 1 minute using a cold insulator. The other side of the abdomen was maintained at 35 to 36° C. using a heating pad. The temperatures of both sides of the abdomen were monitored with a thermometer (Data Logger Thermometer MT-309, Mother Tool Co., Ltd.).

TRPA1 [2] = target: T1, TRPA1; experiment: Electron microscopy of lamellar body secretion between stratum corneum and stratum granulosum; type: in vivo, hairless mice; conditions: pretreatment with antagonist; short exposure to low temperature; FIG. 4c
TRPV1 = TRPV1 (Homo sapiens, UniProt Q8NER1); conditions: cited from earlier work
Sequence of TRPV1 (Q8NER1 whole entry, species assumed): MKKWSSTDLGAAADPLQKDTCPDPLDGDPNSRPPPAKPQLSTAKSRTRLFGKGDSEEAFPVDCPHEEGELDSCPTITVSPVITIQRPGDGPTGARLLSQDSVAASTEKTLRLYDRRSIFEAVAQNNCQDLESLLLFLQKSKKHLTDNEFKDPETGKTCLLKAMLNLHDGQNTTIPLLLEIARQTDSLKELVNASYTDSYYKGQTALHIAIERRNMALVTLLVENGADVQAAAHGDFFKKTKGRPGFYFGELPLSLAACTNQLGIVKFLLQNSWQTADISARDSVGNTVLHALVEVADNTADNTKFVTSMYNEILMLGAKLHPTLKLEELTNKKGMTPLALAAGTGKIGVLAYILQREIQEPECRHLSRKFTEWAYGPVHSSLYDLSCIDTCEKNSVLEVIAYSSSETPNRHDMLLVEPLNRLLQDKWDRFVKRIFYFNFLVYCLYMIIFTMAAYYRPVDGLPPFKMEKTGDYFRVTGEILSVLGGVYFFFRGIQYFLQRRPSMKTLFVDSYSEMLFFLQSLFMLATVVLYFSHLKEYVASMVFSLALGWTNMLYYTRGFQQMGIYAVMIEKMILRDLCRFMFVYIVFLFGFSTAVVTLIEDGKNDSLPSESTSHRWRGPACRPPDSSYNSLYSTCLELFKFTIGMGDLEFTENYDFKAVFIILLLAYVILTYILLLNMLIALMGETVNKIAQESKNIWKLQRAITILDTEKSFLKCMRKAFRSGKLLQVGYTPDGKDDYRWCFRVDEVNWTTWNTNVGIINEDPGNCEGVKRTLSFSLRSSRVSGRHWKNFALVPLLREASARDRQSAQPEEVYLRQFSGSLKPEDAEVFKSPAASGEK

Sequence of TRPV4 (Q9HBA0 whole entry, species assumed): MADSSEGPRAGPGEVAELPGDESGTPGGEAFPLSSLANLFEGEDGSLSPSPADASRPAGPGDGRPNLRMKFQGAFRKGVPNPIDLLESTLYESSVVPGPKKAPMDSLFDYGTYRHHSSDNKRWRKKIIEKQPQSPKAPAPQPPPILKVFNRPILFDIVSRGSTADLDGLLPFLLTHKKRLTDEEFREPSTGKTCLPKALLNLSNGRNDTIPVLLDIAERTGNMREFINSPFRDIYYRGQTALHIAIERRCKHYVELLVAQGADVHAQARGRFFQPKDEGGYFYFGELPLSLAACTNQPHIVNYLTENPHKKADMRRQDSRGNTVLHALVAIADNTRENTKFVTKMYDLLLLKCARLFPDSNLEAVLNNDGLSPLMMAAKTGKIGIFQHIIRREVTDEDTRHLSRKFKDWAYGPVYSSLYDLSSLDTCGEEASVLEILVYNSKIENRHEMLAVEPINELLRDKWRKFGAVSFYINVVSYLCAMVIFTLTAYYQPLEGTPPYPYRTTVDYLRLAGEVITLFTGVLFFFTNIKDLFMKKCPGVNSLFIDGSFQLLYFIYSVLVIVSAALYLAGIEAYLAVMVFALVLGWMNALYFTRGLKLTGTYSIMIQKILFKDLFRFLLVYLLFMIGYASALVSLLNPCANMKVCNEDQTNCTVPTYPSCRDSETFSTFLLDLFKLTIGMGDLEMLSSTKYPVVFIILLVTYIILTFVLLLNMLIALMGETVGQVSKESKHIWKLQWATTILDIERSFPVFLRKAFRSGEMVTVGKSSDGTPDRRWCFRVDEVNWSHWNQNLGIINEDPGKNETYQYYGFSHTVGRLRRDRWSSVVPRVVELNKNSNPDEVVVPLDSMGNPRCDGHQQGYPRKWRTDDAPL

Compound: N.N.N.N.N.N.N.N.N.N.N.N.N.N.[Cl-].[Cl-].[Cl-].[Cl-].[Cl-].[Cl-].[O-2].[O-2].[Ru+3].[Ru+3].[Ru+4] [ruthenium red]
- Effect on barrier repair acceleration by TRPV4 activation (TRPV4): inhibited

Compound: CC(C)c1ccc(NC(=O)Cn2cnc3c2c(=O)n(C)c(=O)n3C)cc1 [HC030031, 2-(1,3-dimethyl-2,6-dioxo-1,2,3,6-tetrahydro-7H-purin-7-yl)-N-(4-isopropylphenyl)acetoamide]
- Effect on barrier recovery acceleration by allyl isothiocyanate or cinnamaldehyde (TRPA1 [1]; pretreatment with 50 μM antagonist, FIG. 1): inhibited
- Effect on barrier recovery acceleration by 1 minute of cooling (10 to 15° C.) (TRPA1 [1]; pretreatment with antagonist, FIG. 2): inhibited
- Effect on low-temperature-accelerated secretion of lamellar bodies (TRPA1 [2]): inhibited

Compound: Oc1cc2c(cc1O)CN(C(=S)NCCc1ccc(Cl)cc1)CCC2 [capsazepine]
- Effect on delay of barrier repair caused by TRPV1 activation (TRPV1; TRPV1 antagonist): inhibited

Compound: C=CCN=C=S [allyl isothiocyanate]
- Barrier recovery (TEWL recovery rate) (TRPA1 [1]; FIG. 1): accelerated

Compound: O=CC=Cc1ccccc1 [cinnamaldehyde]
- Barrier recovery (TEWL recovery rate) (TRPA1 [1]; FIG. 1): accelerated

Compound: COc1cc(CNC(=O)CCCC/C=C/C(C)C)ccc1O [capsaicin]
- Repair of the skin barrier (TRPV1; TRPV1 activated after destroying the skin barrier): delayed
